Earlier results in patent US20210195917A1, “COMPOSITIONS AND RELATED METHODS FOR AGRICULTURE” (priority 2017, published 2021).

Tests used:
bees = details: in vivo
target bacterial strains = details: against its target bacterial strains
[1] = system: gram-negative and gram-positive bacteria as well as fungi

**Q.** With `COP(=S)(OC)Oc1ccc([N+](=O)[O-])c(C)c1` [fenitrothion] as the molecule, how does the toxicity to bees (bees) read?
**A.** toxic to bees

**Q.** Which antifungal activities (fungi) does the source give for botrycidin AJ1316 here?
**A.** antifungal activities

**Q.** Which “concentration showing antimicrobial activity” value (target bacterial strains) does the source give for nisin here?
**A.** single-digit nanomolar

B1: NCR335: cationic NCR peptide of Medicago truncatula, SEQ ID NO: 65 (peptide, listed as Medicago truncatula)
chain: MQIGKNMVETPKLDYVIIFFFLYFFFRQMIILRLNTTFRPLNFKMLRFWGQNRNIMKHRGQKVHFSLILSDCKTNKDCPKLRRANVRCRKSYCVPI
**Q.** Which antimicrobial activities [1] does the source give for B1 here?
**A.** effective
